Source: paper PMC4350406, “Mechanism of Action of 2-Aminobenzamide HDAC Inhibitors in Reversing Gene Silencing in Friedreich’s Ataxia” (Frontiers in Neurology, 2015)
Entries after “also recorded” stand apart in the source; their conditions may differ. Where two headings read alike, the source gives them in different places. One block for each compound: values may come before it.

Experiments:
[1] = cited from earlier work
PCGF2 mRNA = experiment: qRT-PCR of PCGF2 mRNA in FRDA neuronal cells; format: cell-based, human; details: 24 h
Procedure: (§1) All methods for iPSC derivation ([32]) and neuronal differentiation ([28], [33]) have been presented. […] Quantitative RT-PCR was performed as described ([28]), with the following primer pairs: • FXN: 5′-[…]-3′ and 5′-[…]-3′ • HDAC1: 5′-[…]-3′ and 5′-[…]-3′ • HDAC2: 5′-[…]-3′ and 5′-[…]-3′ • HDAC3: 5′-[…]-3′ and 5′-[…]-3′ • PCGF2: 5′-[…]-3′ and 5′-[…]-3′ • H2AFY2: 5′-[…]-3′ and 5′-[…]-3′
(§2) Data were normalized to RNA concentration and p values calculated using the t-test. Western blotting was performed as described ([28]), with antibodies to HDACs 1, 2, and 3 from Abcam (ab7028, ab7029, ab7030, respectively), used at a dilution of 1:5000. […] Protein concentrations were determined with the BCA assay (Thermo Scientific).

FXN mRNA [2] = experiment: qRT-PCR of FXN mRNA in FRDA iPSC-derived neurons treated with HDAC inhibitors; format: cell-based, human; details: for up-regulation of FXN mRNA: 10 μM for 24 h, data not shown; for effect on FXN mRNA levels: 16-day-old FRDA neurons, 24 h, varying concentrations (Figure 2)
Procedure: as §1, §2

H2AFY2 mRNA = experiment: qRT-PCR of H2AFY2 mRNA in FRDA neuronal cells; format: cell-based, human; details: 24 h
Procedure: as §1, §2

[3] = design: method as in PMID 27721337, PMID 22973455; details: in vivo, cited from earlier work
[4] = molecular target: T1, Recombinant human HDAC3/NCoR2 (Homo sapiens, UniProt O15379); details: cited from earlier work
FXN mRNA [5] = tested on: FXN mRNA; design: method as in PMID 25159818; details: cited from earlier work
Recombinant human HDAC1 [6] = molecular target: T2, Recombinant human HDAC1 (Homo sapiens, UniProt Q13547); details: cited from earlier work
[7] = design: method as in PMID 25159818; details: preclinical studies; cited from earlier work
FXN mRNA [8] = tested on: FXN mRNA; design: method as in PMID 12516053; details: cited from earlier work
FXN mRNA [9] = details: cited from earlier work; for effect on FXN gene expression: lymphoid cells
Recombinant human HDAC1 [10] = molecular target: T2, Recombinant human HDAC1; experiment: HDAC1 deacetylase activity assay (acetyl-Lys(Ac)-AMC / Lys-C peptidase, progression curves)
[11] = molecular target: T1, Recombinant human HDAC3/NCoR2; experiment: HDAC3/NCoR2 deacetylase activity assay (acetyl-Lys(Ac)-AMC / Lys-C peptidase, progression curves)
HDAC = tested on: HDAC; design: method as in PMID 16921367, PMID 18953021; details: cited from earlier work
FXN mRNA [12] = tested on: FXN mRNA; design: method as in PMID 16921367; details: FRDA primary lymphocytes; cited from earlier work
[13] = fit of kobs versus inhibitor concentration
[14] = progression curves, mechanism 2
[15] = progression curves, mechanism 1

T1 sequence (O15379 whole entry): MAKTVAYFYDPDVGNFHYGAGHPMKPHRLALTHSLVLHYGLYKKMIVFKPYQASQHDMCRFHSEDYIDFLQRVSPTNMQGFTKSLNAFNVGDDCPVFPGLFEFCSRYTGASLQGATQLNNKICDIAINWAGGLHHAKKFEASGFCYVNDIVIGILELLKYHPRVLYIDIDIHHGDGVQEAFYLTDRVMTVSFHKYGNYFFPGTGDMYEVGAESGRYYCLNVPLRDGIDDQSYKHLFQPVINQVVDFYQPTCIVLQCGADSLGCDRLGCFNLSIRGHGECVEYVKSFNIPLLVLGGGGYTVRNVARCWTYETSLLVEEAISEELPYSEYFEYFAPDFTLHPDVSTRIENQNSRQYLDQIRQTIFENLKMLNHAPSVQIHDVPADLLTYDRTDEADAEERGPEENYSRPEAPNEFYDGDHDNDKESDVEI
T1 sequence (Q9Y618 395-489 partner limits assumed): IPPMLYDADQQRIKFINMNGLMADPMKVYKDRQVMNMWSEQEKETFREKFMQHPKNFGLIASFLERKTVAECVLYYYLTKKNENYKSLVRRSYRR
T2 sequence (Q13547 whole entry): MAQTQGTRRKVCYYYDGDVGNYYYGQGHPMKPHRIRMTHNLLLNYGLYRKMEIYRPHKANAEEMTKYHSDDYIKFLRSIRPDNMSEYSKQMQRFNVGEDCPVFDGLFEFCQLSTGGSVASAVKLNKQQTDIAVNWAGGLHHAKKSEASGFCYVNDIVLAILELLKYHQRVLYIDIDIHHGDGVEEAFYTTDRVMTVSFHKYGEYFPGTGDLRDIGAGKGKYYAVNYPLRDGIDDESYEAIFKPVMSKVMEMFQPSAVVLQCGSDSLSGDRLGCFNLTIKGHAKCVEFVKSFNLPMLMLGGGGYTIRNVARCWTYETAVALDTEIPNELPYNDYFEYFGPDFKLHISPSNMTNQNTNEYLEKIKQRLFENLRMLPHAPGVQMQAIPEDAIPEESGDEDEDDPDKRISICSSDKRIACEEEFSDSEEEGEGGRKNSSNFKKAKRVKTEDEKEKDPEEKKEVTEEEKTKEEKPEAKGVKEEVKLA

SMILES: Nc1ccccc1NC(=O)/C=C/c1cn(C/C=C/c2ccccc2)nn1 [Click-1]
brain/plasma ratio [1]: > 0.7
PCGF2 mRNA level (PCGF2 mRNA; 5 μM (lower concentrations)): significantly down-regulate
FXN mRNA increase compared with HDACi 109 (FXN mRNA [2]; FRDA neuronal cells, varying concentrations (Figure 6B)): equivalent activities; also recorded: no loss of activity
H2AFY2 mRNA level (H2AFY2 mRNA; 5 μM (lower concentrations)): significantly down-regulate
metabolic conversion / benzimidazole formation [3]: stability to benzimidazole formation

SMILES: Nc1cc(F)ccc1NC(=O)/C=C/c1cnn(CC=Cc2ccccc2)c1 [HDACi 966, (E)-N-(2-amino-4-fluorophenyl)-3-(1-cinnamyl-1H-pyrazol-4-yl)acrylamide]
selectivity for HDAC3 over HDAC1/2 [4]: ~ 30 fold
up-regulation of FXN mRNA (FXN mRNA [2]; FRDA neuronal cells): did not
induction of FXN gene expression in FRDA neuronal cells (FXN mRNA [5]): inactive

SMILES: Nc1ccc(-c2cccs2)cc1NC(=O)CCCCCCNC(=O)c1cccnc1 [HDACi 233, N-(2-amino-5-(2-thienyl)phenyl)-7-nicotinoylamino-heptanamide]
selectivity for HDAC1 over HDAC3 (Recombinant human HDAC1 [6]): > 200 fold
up-regulation of FXN mRNA (FXN mRNA [2]; FRDA neuronal cells): did not
induction of FXN gene expression in FRDA neuronal cells (FXN mRNA [5]): weakly active

SMILES: c1ccc2[nH]cnc2c1 [benzimidazole]
risk category for inducing QTc prolongation [7]: high-risk category

SMILES: CCCC(=O)[O-].[Na+] [sodium butyrate]
ability to increase FXN mRNA expression (FXN mRNA [8]): only a modest effect

SMILES: NC(=O)c1cccnc1 [nicotinamide]
FXN mRNA levels (FXN mRNA [9]; FRDA lymphoblasts): increases FXN mRNA levels

inhibition mechanism HDAC1 (Recombinant human HDAC1 [10]; [13]): slow-on/slow-off inhibition mechanism 2
preference for HDAC1 over HDAC3 comparing IC50 values (Recombinant human HDAC1 [10]; from Table 1 values): ~ 75 fold
preference for HDAC1 over HDAC3 from Ki measurements (Recombinant human HDAC1 [10]; from Table 1 values): ~ 350 fold
k2 HDAC1 (Recombinant human HDAC1 [10]; [14]): k2 = 0.1675 min^−1
k−2 HDAC1 (Recombinant human HDAC1 [10]; [14]): k−2 = 0.0017 min^−1
inhibition mechanism HDAC3 [11, 13]: mechanism 1
k1 HDAC3 [11, 15]: k1 = 600 min^-1 M^−1
k−1 HDAC3 [11, 15]: k−1 = 0.0015 min^−1
Selectivity HDAC3 (from IC50) ([11]; ratio of IC50 HDAC1 to IC50 HDAC3, from data of refs 25, 26): 0.013
SMILES: Nc1ccc(-c2ccccc2)cc1NC(=O)CCCCCC(=O)Nc1ccccc1 [HDACi 3, N^1-(4-aminobiphenyl-3-yl)-N^7-phenylheptanediamide]
IC50 [4]: 9.6 µM
IC50 (Recombinant human HDAC1 [6]): 0.127 µM
effect on FXN mRNA levels (FXN mRNA [2]): no effect; also recorded: weakly active

SMILES: Cc1ccc(C(=O)NCCCCCC(=O)Nc2ccccc2N)cc1 [HDACi 109, N-(6-(2-aminophenylamino)-6-oxohexyl)-4-methylbenzamide]
metabolic conversion / benzimidazole formation [3]: conversion of the active molecule into an inactive metabolic product
metabolic conversion / benzimidazole formation ([3]; listed as 109/RG2833): conversion of the active molecule into inactive, potentially toxic metabolic products

SMILES: CC(/C=C/C(=O)NO)=C\[C@@H](C)C(=O)c1ccc(N(C)C)cc1 [TSA]
inhibition mechanism (HDAC): rapid-on/rapid-off inhibitors
effect on FXN gene expression (FXN mRNA [9]): without effect on FXN gene expression

SMILES: Cc1ccc(NC(=O)CCCCCC(=O)Nc2ccccc2N)cc1 [HDACi 106]
inhibition mechanism HDAC1 (Recombinant human HDAC1 [6]): slow-on/slow-off inhibitor
metabolic conversion / benzimidazole formation [3]: conversion of the active molecule into an inactive metabolic product

SMILES: O=C(CCCCCCC(=O)Nc1ccccc1)NO [SAHA]
effect on FXN gene expression (FXN mRNA [9]): without effect on FXN gene expression

SMILES: Nc1ccccc1NC(=O)CCCCCCC(=O)Nc1ccccc1 [BML-210, N^1-(2-aminophenyl)-N^8-phenyloctanediamide]
FXN mRNA expression (FXN mRNA [9]; FRDA lymphoblasts): significant increase

SMILES: Nc1ccccc1NC(=O)CCCCCC(=O)Nc1ccccc1 [4b, N^1-(2-aminophenyl)-N^7-phenylheptanediamide]
FXN mRNA levels (FXN mRNA [12]): significantly increase FXN mRNA levels

SMILES: Cc1ccc(C(=O)NCCCCCC(=O)Nc2ccc(F)cc2N)cc1 [HDACi 136, N-(6-(2-amino-4-fluorophenylamino)-6-oxohexyl)-4-methylbenzamide]
PCGF2 mRNA level (PCGF2 mRNA; 5 μM (lower concentrations)): inactive at lower concentrations
PCGF2 mRNA level (PCGF2 mRNA; 10 μM): moderately active
effect on FXN mRNA levels (FXN mRNA [2]): only a modest effect; also recorded: inactive
H2AFY2 mRNA level (H2AFY2 mRNA; 5 μM (lower concentrations)): inactive at lower concentrations
H2AFY2 mRNA level (H2AFY2 mRNA; 10 μM): moderately active
